Data taken from patent publication US20120101057A1, “COMBINED THERAPY OF COLORECTAL CARCINOMA” (INSTYTUT FARMACEUTYCZNY, priority 2009, published 2012).

Tests used:
[1] = system: CaCo-2; test: antiproliferative activity of 5-fluorouracil combined with vitamin D analogues in vitro, 120 h; format: cell-based, human; set-up: key to Type of reaction between vitamin D analogues and 5-fluorouracil: +: sub-additive effect; ++: additive effect; +++: synergistic effect; −: antagonism; settings: for Type of reaction between vitamin D analogues and 5-fluorouracil: CaCo-2, analogue 100 nM + 5-fluorouracil 1 μg/ml, 120-hours exposure
Description: (§1) After 24 h culture, the cells of large intestine carcinoma were treated simultaneously with calcitriol or vitamin D analogues and 5-fluorouracil for 120 hours. The final concentration of vitamin D analogues was 100 nM, and of 5-fluorouracil—-1 μg/ml or 0.1 μg/ml. Statistical analysis of the obtained results of inhibition of proliferation was carried out by analysis of percent of inhibition of proliferation in individual combinations of compounds.
(§2) Hypothetical value was calculated according to a formula: […]
(§3) wherein: % H—hypothetical inhibition of proliferation by combination of compounds [Vo]; % cyt—inhibition of proliferation by 5-Fu alone [%]; % vit—inhibition of proliferation by calcitriol or cholecalciferol analogue alone [%];
(§4) Additive effect occurs when the experimental and hypothetical value are similar, sub-additive effect occurs when experimental value is lower than hypothetical value but above value for a cytostatic alone, and antagonistic action—when a value determined for a cytostatic used alone is above experimental value for combination of both compounds. [Peters G. J. i wsp.: Pharmacol Ther 2000, 87, 227-253]

[2] = system: MC38/0; test: as above; format: cell-based, mouse; set-up: key: +: sub-additive effect; ++: additive effect; +++: synergistic effect; −: antagonism; settings: 120-hours exposure
Description: as §1, with “The final concentration of vitamin D analogues was 100 nM, and of 5-fluorouracil—-1 μg/ml or 0.1 μg/ml.” left out
as §2, §3, §4

[3] = system: HT-29; test: as above; format: cell-based, human; set-up: key: +: sub-additive effect; ++: additive effect; +++: synergistic effect; −: antagonism; settings: analogue 100 nM + 5-fluorouracil 0.1 μg/ml, 120-hours exposure
Description: as §1, §2, §3, §4

[4] = system: LoVo; test: as above; format: cell-based, human; set-up: key: +: sub-additive effect; ++: additive effect; +++: synergistic effect; −: antagonism; settings: analogue 100 nM + 5-fluorouracil 1 μg/ml, 120-hours exposure
Description: as §1, §2, §3, §4

[5] = system: murine colorectal cancer MC38/EGFP; test: burden of metastases in regional lymph nodes, MC38/EGFP fluorescence (1c); format: in vivo, mice; settings: for metastases in regional lymph nodes (intensity of fluorescence), combined treatment with 5-FU: 5-FU 75 mg/kg i.p. with PRI-2191 1 μg/kg or PRI-2205 10 μg/kg s.c., day 59; for metastases in regional lymph nodes (fluorescence) versus control mice: analogue only, day 50
Excerpt: Cancer cells of murine colorectal cancer MC38/EGFP (cells expressing a protein of green fluorescence) were implanted subcutaneously in an amount of 1×10^6 cells/mouse. […] Compounds were given subcutaneously, 3 times a week. […] Then on day 59 of experiment, lymph nodes from mice of remaining were taken for analysis. Using NightOWL II LB 983 apparatus, photographs of isolated lymph nodes were taken in order to visualize cancer cells in sites of metastases.
Intensity of the measured fluorescence is related to a burden of metastases (the number of cells with fluorescence).

[6] = system: murine colorectal carcinoma C38; test: tumour growth in mice with murine colorectal carcinoma C38 treated with capecitabine; format: in vivo, Mice of C57BL/6 strain; settings: for Tumours MEAN ± SD / TGI: C38; for tumour mass, combination with capecitabine in comparison with capecitabine alone / type of interaction in inhibition of tumour growth with capecitabine: analogue combined with capecitabine; for tumour C38 mass in comparison with control: single agent
[7] = system: colorectal cancer HT-29; test: tumour growth in mice with colorectal cancer HT-29 treated with 5-fluorouracil; format: in vivo; settings: for TGI / Tumours MEAN ± SD: HT-29, 49 day of experiment; for HT-29 tumour mass, combination with 5-FU in comparison with 5-FU alone / type of interaction in inhibition of HT-29 tumour growth: analogue combined with 5-FU; for HT-29 tumour mass in comparison with control: single agent
[8] = system: murine colorectal cancer C38; test: tumour growth in mice with colorectal cancer C38 treated with 5-fluorouracil (1a); format: in vivo, Mice of C57BL/6 strain; settings: for TGI / Tumours MEAN ± SD: C38, 28 day of experiment; for Tumours MEAN ± SD: 5-FU 150 mg/kg i.p., PRI-2191 2 ug/kg s.c., PRI-2205 10 μg/kg s.c.; for volume of tumours C38, combination with 5-FU in comparison with 5-FU: analogue combined with 5-FU; for volume of tumours C38 in comparison with control: single agent
[9] = system: murine colorectal cancer C38; test: survival time and tumour growth in mice with colorectal cancer C38 treated with 5-FU (1b); format: in vivo; settings: for ILS %: 5-FU 75 mg/kg i.p. day 1, PRI-2191 2, PRI-2205 10 μg/kg/day 3 times per week; for TGI (d20) %: day 20; for C38 tumour mass, combination with 5-FU in comparison with 5-FU: analogue combined with 5-FU; for C38 tumour mass in comparison with control: single agent
Description: Mice with colorectal cancer C38 were treated with 5-FU given in a single administration, intraperitoneally on day 1 at a dose of 75 mg/kg.

[10] = rats; cited from earlier work
[11] = body mass of mice under combined therapy; format: in vivo; settings: combination with 5-FU
[12] = calcium level in blood serum of mice treated with 5-FU and vitamin D analogues; format: in vivo, Mice of BALB/c strain; settings: BALB/c; 5-FU 50 mg/kg i.p. day 1; PRI-2191 2 or PRI-2205 10 μg/kg/day 3 times a week
Description: Mice of BALB/c strain were treated with 5-FU given in a single administration, intraperitoneally on day 1 at a dose of 50 mg/kg. […] Calcium level was evaluated (Arsezano 3 method, Olympus AU400; Olympus America Inc., Melville, NY, USA) in blood serum of treated and control mice.

[13] = MC38/0, analogue 100 nM + 5-fluorouracil 0.1 μg/ml
[14] = analogue 100 nM + 5-fluorouracil 0.01 μg/ml, cell line of this column unclear (MC38/0 or CaCo-2)
[15] = 18 day of experiment, KCY 250 mg/kg/day oral, PRI-2191 1, PRI-2205 10 μg/kg/day s.c.

Row | Structure (SMILES) | Type of reaction between vitamin D analogues and 5-fluorouracil [1] | Type of reaction between vitamin D analogues and 5-fluorouracil [2, 13] | Type of reaction between vitamin D analogues and 5-fluorouracil [2, 14] | Type of reaction between vitamin D analogues and 5-fluorouracil [3] | Type of reaction between vitamin D analogues and 5-fluorouracil [4] | metastases in regional lymph nodes (intensity of fluorescence), combined treatment with 5-FU [5] | metastases in regional lymph nodes (fluorescence) versus control mice [5] | Tumours MEAN ± SD [6, 15] | tumour mass, combination with capecitabine in comparison with capecitabine alone [6] | type of interaction in inhibition of tumour growth with capecitabine [6] | tumour C38 mass in comparison with control [6] | TGI [7] | Tumours MEAN ± SD [7] | HT-29 tumour mass in comparison with control [7] | TGI [8] | Tumours MEAN ± SD [8] | volume of tumours C38 in comparison with control [8] | ILS % ([9]; C38) | TGI (d20) % ([9]; C38) | C38 tumour mass in comparison with control [9] | other results
1 | C=C1/C(=C\C=C2/CCC[C@]3(C)[C@@H]([C@H](C)CCCC(C)(C)O)CC[C@@H]23)C[C@@H](O)C[C@@H]1O [CALCITRIOL, 1,25-dihydroxycholekalciferol] | − | +++ | +++ | +++ | +++ |  |  |  |  |  |  |  |  |  |  |  |  |  |  |  | interaction with 5-fluorouracil ([1]; Caco-2 cell line, 120-hour exposure): antagonism
2 | C=C1/C(=C/C=C2\CCC[C@]3(C)[C@@H]([C@H](C)/C=C/[C@@H](O)C4CC4)CC[C@@H]23)C[C@@H](O)C[C@@H]1O [PRI-2205, (1S,3R,5E,7E,22E,24S)-24-cyclopropyl-9,10-secochol-5,7,10(19),22-tetraeno-1,3,24-triol] | +++ | +++ | +++ | +++ | +++ | did not influence the metastatic process | did not differ significantly | 0.81 ± 0.60 g | influences significantly tumour mass in comparison with capecitabine alone | synergism | does not influence tumour mass | 31% | 1.88 ± 0.78 g | did not influence tumour mass | 29% | 1.06 ± 0.84 g | inhibits C38 tumours growth from 18 to 28 day of measurement | 2% | 0% | does not influence tumour mass | HT-29 tumour mass, combination with 5-FU in comparison with 5-FU alone [7]: influences significantly also tumour mass in comparison with 5-FU alone; type of interaction in inhibition of HT-29 tumour growth [7]: synergism; volume of tumours C38, combination with 5-FU in comparison with 5-FU [8]: decreases in statistically significant manner volume of tumours also in comparison with 5-FU; influence on survival time of mice treated with 5-FU ([9]; C38, analogue added to 5-FU, p<0.05): prolongs survival of mice treated with 5-FU; ILS Effect ([9]; C38, combination with 5-FU, survival time): synergistic; C38 tumour mass, combination with 5-FU in comparison with 5-FU [9]: in a statistically significant manner decreases tumour mass also in comparison with 5-FU
3 | C=C1/C(=C\C=C2/CCC[C@]3(C)[C@@H]([C@H](C)/C=C/[C@@H](O)C4CC4)CC[C@@H]23)C[C@@H](O)C[C@@H]1O [PRI-2201, (1S,3R,5Z,7E,22E,24S)-24-cyclopropyl-9,10-secochola-5,7,10(19),22-tetraeno-1,3,24-triol] | +++ | +++ | +++ | +++ | +++ |  |  |  |  |  |  |  |  |  |  |  |  |  |  |  | lesser influence on calcium metabolism than calcitriol [10]: 100-200 fold
4 | C=C1/C(=C\C=C2/CCC[C@]3(C)[C@@H]([C@H](C)CC[C@@H](O)C(C)C)CC[C@@H]23)C[C@@H](O)C[C@@H]1O [PRI-2191, 1,24(R)-dihydroxycholekalciferol] | +++ | +++ | +++ | +++ | +++ | increased anti-metastatic action | did not differ significantly | 0.75 ± 0.32 g | influences significantly tumour mass in comparison with capecitabine alone | a synergistic effect is seen mainly in the last days of the experiment | does not influence tumour mass | 16% | 2.19 ± 1.51 g | did not influence tumour mass | 16% | 0.88 ± 0.49 g | inhibits 38C tumours growth in the last four measurements | 52% | 44% | inhibits C38 tumour growth only in two last measurements | body mass of mice treated with 5-FU in combination with vitamin D analogue, versus 5-FU alone [11]: increased loss of body mass; HT-29 tumour mass, combination with 5-FU in comparison with 5-FU alone [7]: influences significantly also tumour mass in comparison with 5-FU alone; type of interaction in inhibition of HT-29 tumour growth [7]: synergism; volume of tumours C38, combination with 5-FU in comparison with 5-FU [8]: decreases in statistically significant manner volume of tumours also in comparison with 5-FU; C38 tumour mass, combination with 5-FU in comparison with 5-FU [9]: in a statistically significant manner decreases tumour mass also in comparison with 5-FU; calcium level in blood serum of mice [12]: calcium level increases in statistically significant degree
5 | CCCCCOC(=O)Nc1nc(=O)n([C@@H]2O[C@H](C)[C@@H](O)[C@H]2O)cc1F [KCY, capecitabine] |  |  |  |  |  |  |  | 0.41 ± 0.33 g |  |  | decreases tumour C38 mass in comparison with control |  |  |  |  |  |  |  |  |  | TGI ([6]; 18 day of experiment): 47%; TGI ([6]; 29 day of experiment): 35%; Tumours MEAN ± SD ([6]; 29 day of experiment): 1.65 ± 1.39 g
6 | O=c1[nH]cc(F)c(=O)[nH]1 [5-FU, 5-fluorouracil] |  |  |  |  |  |  |  |  |  |  |  | 47% | 1.23 ± 0.30 g | decreases in a statistically significant manner HT-29 tumour in comparison with control | 84% | 0.19 ± 0.19 g | decreases in statistically significant manner volume of tumours C38 in comparison with control | 21% | 64% | decreases in a statistically significant manner C38 tumour mass in comparison with control | 
